Test [1] deals with rTg(tauP301L)4510 mouse (Tau-Tg). Briefly: Brain-Body weight ratio in Tau transgenic mice. Type of test: in vivo. The procedure:
(§1) The experiment included three groups: Tau-Tg female mice, 10-month-old, treated by intranasal administration of NAT 2 μg/5 μl/mouse/day (n=5) or vehicle (SW/mouse/day) (n=6), and as control, non-Tg female littermates treated by vehicle (SW/mouse/day) (n=7).
(§2) Treatment started at 9 months of age and continued daily for a period of 5 weeks. At each test NAT was applied 1 h before the test begun.
All mice were weighed at the beginning and end of the experiment and whole brain weight was measured before the brain dissection.
All mice were weighed before first drug application and again before the dissection (while still alive). […] Whole brain was weighed before the brain sections were separated and no significant statistical differences between the groups were found. However, Brain-Body weight ratio may be used to measure brain mass decrease possibly indicating neuronal degradation (Bassan et al., (2009) J Matern Fetal Neonatal Med, 1-6).

The test system is the same in test [2]. In words: Morris water maze in Tau transgenic mice. Type of test: in vivo. The settings on record: Tau-Tg female mice, intranasal NAT 2 μg/5 μl/mouse/day; p=0.039. The procedure: The mouse model, used in the current study, was previously described (Ramsden et al., (2005) J Neurosci, 25, 10637-10647). The rTg(tauP301L)4510 mouse (designated as Tau-Tg below) expresses the human 4-repeat Tau with the P301L mutation (4RON) associated with frontotemporal dementia and Parkinsonism linked to chromosome 17.
as §1
NAT was dissolved in a vehicle solution, in which each milliliter include 7.5 mg of NaCl, 1.7 mg of citric acid monohydrate, 3 mg of disodium phosphate dehydrate, and 0.2 mg of benzalkonium chloride solution (50%). 5 μl of NAT or vehicle solution (DD) were administered intranasally.
as §2
Each mouse was placed in a pool of water that is colored opaque with powdered non-fat milk, where it must swim to a hidden escape platform. […]
Experimental procedure: Mice were treated with NAT or vehicle and then habituated for 1 hour in the experiment room. […] The time required for reaching the platform in each trial and the path lengths were measured. […]

Test [3] relates to cerebral cortical astrocytes intoxicated with ZnCl2. Briefly: MTS assay: survival of astrocytes following intoxication with ZnCl2. Type of test: cell-based, mice. The procedure:
Cell cultures were prepared as previously described (McCarthy KD, de Vellis J., J. Cell Biol., 85:890-902 (1980); Gozes I et al., J. Pharmacol. Exp. Ther., 257:959-66 (1991)). Newborn mice (Harlan Biotech Israel Ltd., Rehovot, Israel) were sacrificed by decapitation and the brain was removed. The cortex was dissected and meninges were removed. The tissue was minced with scissors and placed in Hank's balanced salts solution X1 (HBSS, Biological Industries, Beit Haemek, Israel), 15 mM HEPES Buffer pH 7.3 (Biological Industries, Beit Haemek, Israel) and 0.25% trypsin (Biological Industries, Beit Haemek, Israel) in an incubator at 37° C. 10% CO2 for 20 minutes. The cells were then placed in 8 ml of solution D1 containing 10% heat inactivated fetal calf serum (Biological Industries, Beit Haemek, Israel), 0.1% gentamycin sulphate solution (Biological Industries, Beit Haemek, Israel) and 0.1% penicillin-streptomycin-nystatin solution (Biological Industries, Beit Haemek, Israel) in Dulbecco's modified Eagle's medium (DMEM, Sigma, Rehovot, Israel). The cells were allowed to settle, and were then transferred to a new tube containing 2.5 ml of D1 and triturated using a Pasteur pipette. The process was repeated twice more. Once all the cells were suspended, cell density was determined using a hemocytometer (Neubauer improved, Germany) and 1×10^6 cells/15 ml D1 were inoculated into each 75 cm^2 flask (Corning, Corning, N.Y., USA). Cells were incubated at 37° C. 10% CO2. The medium was changed after 24 hours and cells were grown until confluent (one week).
The flasks containing the cerebral cortical astrocytes were shaken to dislodge residual neurons and oligodendrocytes that may be present. Flasks were then washed with 10 ml cold HBSSx1, HEPES15 mM. 5 ml versene-trypsin solution (BioLab, Jerusalem, Israel) was added to each flask and the flasks were incubated at room temperature for 5 minutes to remove astrocytes. The flasks were then shaken to dislodge the cells. The versene-trypsin solution was neutralized with 5 ml D1. The cell suspension was collected and centrifuged at 100 g for 10 minutes. The supernatant was removed and the cells resuspended in D1. The cells were plated in 96 well plates (Corning, Corning, N.Y., USA) (each flask to 2 plates) and incubated until confluent at 37° C. 10% CO2.
The survival of astrocytes following intoxication with ZnCl2 was tested using the MTS assay. One week after sub-culturing the astrocytes into 96-well plates, the astrocyte growth medium was aspirated and fresh medium containing 200μM ZnCl2 and ascending concentrations of NATLSHIHQ (SEQ ID NO:4) or STPTAIPQ (SEQ ID NO:6)(concentration range: 10^−16-10^−7M) was added to the cells. The cells were incubated for 4 hours in 10% CO2 at 37°C., followed by an MTS assay using Celltiter 96 Aqueous non-radioactive cell proliferation assay (Promega, Madison, WI, USA) which was performed according to the manufacturer's instructions and read in an ELISA plate reader at 490nm.

Where “and” joins values, the source holds several entries; their conditions need not be identical. Identical values can stand only once. Entries after “also recorded” stand apart in the source; their conditions may differ.

As for NATLSIHQ (synthetic NAP-like peptide), in test [1] (TAU-Tg mice, intranasal NAT, listed as NAT), the “protection from neurodegeneration (Brain-Body weight ratio)” value was “protected the brain from neurodegeneration; also recorded: protective effect”. In addition, the Brain-Body weight ratio in test [1] (TAU-Tg+NAT, intranasal daily 5 weeks, mean and S.E., p=0.030 vs vehicle treated TAU-Tg) is 0.0148+0.0009. The “improvement in learning: latency to find the hidden platform, first day vs fifth day, second daily trial” value in test [2] is on record as “Significant improvement”. In addition, the “effective concentrations on astrocyte survival: Astrocytes (200 μM ZnCl2)” value in test [3] (MTS assay, 4 hours, tested 10^−16-10^−7M, significance vs negative control in cell) was 10^−12 M and 10^−8 M and 10^−7 (p < 0.0005) M and 10^−10 (p < 0.05) M. Besides, the “activity in neuroprotection assay” value in test [3] (astrocytes, ZnCl2) was “active”. Moreover, the “efficacy compared between peptides” value in test [3] (survival of astrocytes) is on record as “greater than that of STPTAIPQ”.

For the origin of these results see patent US8324166B2, “Neuroprotection using NAP-like and SAL-like peptide mimetics” (Ramot at Tel-Aviv University, Ltd., priority 2007, dated 2012).
